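Protocol summary: plate cells (96-well), add compound at 5 concentrations, incubate 48 h, interpolate endpoints linearly. At the GI50, growth is halved. Definition used: TGI = concentration required for complete inhibition of growth.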
What was measured:
Experiment in all cases: DTP human tumour cell line panel, 48 h
NCI-H460 lung = test system: NCI-H460 lung
OVCAR-8 ovarian = test system: OVCAR-8 ovarian
SK-OV-3 ovarian = test system: SK-OV-3 ovarian
NCI-H522 lung = test system: NCI-H522 lung
OVCAR-5 ovarian = test system: OVCAR-5 ovarian
OVCAR-3 ovarian = test system: OVCAR-3 ovarian
UO-31 renal = test system: UO-31 renal
SK-MEL-2 melanoma = test system: SK-MEL-2 melanoma
RPMI-8226 leukemia = test system: RPMI-8226 leukemia
EKVX NSCLC = test system: EKVX NSCLC

COc1cnc2c(c1)C(=O)c1c-2n(CCCN2CCOCC2)c(=O)c2cc(Cl)ccc12
GI50 (NCI-H460 lung): 70.1 nM | TGI (NCI-H460 lung): > 100 µM | GI50 (OVCAR-8 ovarian): 578 nM | TGI (OVCAR-8 ovarian): > 100 µM | GI50 (SK-OV-3 ovarian): 397 nM | TGI (SK-OV-3 ovarian): > 100 µM | GI50 (NCI-H522 lung): 244 nM | TGI (NCI-H522 lung): > 100 µM | GI50 (OVCAR-5 ovarian): > 100 µM | TGI (OVCAR-5 ovarian): > 100 µM | GI50 (OVCAR-3 ovarian): 783 nM | TGI (OVCAR-3 ovarian): > 100 µM | GI50 (UO-31 renal): 349 nM | TGI (UO-31 renal): > 100 µM | GI50 (SK-MEL-2 melanoma): 30.5 µM | TGI (SK-MEL-2 melanoma): > 100 µM | GI50 (RPMI-8226 leukemia): 426 nM | TGI (RPMI-8226 leukemia): > 100 µM | GI50 (EKVX NSCLC): > 100 µM | TGI (EKVX NSCLC): > 100 µM

COc1cccc(N2C(Cl)C(=O)C2c2c[nH]c3ccccc23)c1 (stereo not given)
TGI (NCI-H460 lung): > 100 µM | TGI (OVCAR-8 ovarian): > 100 µM | TGI (SK-OV-3 ovarian): > 100 µM | TGI (NCI-H522 lung): > 100 µM | TGI (OVCAR-5 ovarian): > 100 µM | TGI (OVCAR-3 ovarian): > 100 µM | TGI (UO-31 renal): > 100 µM | TGI (SK-MEL-2 melanoma): > 100 µM | TGI (RPMI-8226 leukemia): > 100 µM | TGI (EKVX NSCLC): > 100 µM

Reference: PubChem BioAssay (NCI)
